The values below come from paper PMC11365967 (Nature Communications, 2024).

The target of the assay is T1, CCR6 (Homo sapiens, UniProt P51684).
T1 sequence (P51684 1-374): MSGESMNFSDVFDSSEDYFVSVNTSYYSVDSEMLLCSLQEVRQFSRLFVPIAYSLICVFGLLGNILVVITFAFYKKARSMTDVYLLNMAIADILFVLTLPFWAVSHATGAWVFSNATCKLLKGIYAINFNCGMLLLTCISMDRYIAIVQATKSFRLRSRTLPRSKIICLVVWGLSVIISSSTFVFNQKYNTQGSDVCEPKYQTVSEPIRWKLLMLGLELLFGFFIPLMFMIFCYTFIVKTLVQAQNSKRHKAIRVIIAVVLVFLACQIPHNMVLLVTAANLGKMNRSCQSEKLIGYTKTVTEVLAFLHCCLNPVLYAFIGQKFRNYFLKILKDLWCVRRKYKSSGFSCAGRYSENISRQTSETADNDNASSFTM
In words: CCL20-mediated CCR6+ human T cell chemotaxis assay. In kind it is cell-based.

As for `O=C1COC(CNC(=O)C2(c3ccccc3)CC2)CN1C1Cc2ccccc2C1` (stereo not shown) [OXM4], the “activity on CCR6” value is “neither OXM3 nor OXM4 are active”. Consider `CC(C)(C(=O)NCC1CN(C2Cc3ccccc3C2)C(=O)CO1)c1ccc(Cl)cc1` (stereo not shown) [OXM3], for which the “activity on CCR6” value is on record as “neither OXM3 nor OXM4 are active”. In the case of “CCL20: cognate chemokine ligand (agonist) of CCR6 (Peprotech)”, the “pEC50, CCL20-induced CCR6+ human T cell chemotaxis” value (mean ± s.d., n = 5) is listed as 9.7 ± 0.9. In addition, the EC50 (read-out: EC50, CCL20-induced CCR6+ human T cell chemotaxis, n = 5) came out at 0.19 nM.

By EC50 is commonly meant the concentration giving half of the maximal effect.
